According to the supplement of paper PMC10307832:

Tests used:
Assay in all cases: relative viability (nuclei count vs DMSO), 5 days (fraction); higher = more cells survive
PC-14 = test system: PC-14
Summary of the method: (§1)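 Values are medians from duplicate plates. Each reflects relative viability, defined as the nuclei count of treated wells over that of vehicle wells. Lung cancer cell lines in 1536-well plates were pin-tool dosed one day after seeding with one drug alone or with a fixed anchor-drug dose plus five library-drug doses (not always all listed) in √10 steps, then fixed, stained and imaged at 4× after 5 days.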

NCI-H1734 = test system: NCI-H1734
Summary of the method: as §1

COR-L23 = test system: COR-L23
Summary of the method: as §1

NCI-H2405 = test system: NCI-H2405
Summary of the method: as §1

NCI-H1650 = test system: NCI-H1650
Summary of the method: as §1

NCI-H1563 = test system: NCI-H1563
Summary of the method: as §1

NCI-H520 = test system: NCI-H520
Summary of the method: as §1

NCI-H661 = test system: NCI-H661
Summary of the method: as §1

RERF-LC-KJ = test system: RERF-LC-KJ
Summary of the method: as §1

NCI-H2342 = test system: NCI-H2342
Summary of the method: as §1

NCI-H1355 = test system: NCI-H1355
Summary of the method: as §1

NCI-H322M = test system: NCI-H322M
Summary of the method: as §1

PC-3 [JPC-3] = test system: PC-3 [JPC-3]
Summary of the method: as §1

CAL-12T = test system: CAL-12T
Summary of the method: as §1

ABC-1 = test system: ABC-1
Summary of the method: as §1

HCC-827 = test system: HCC-827
Summary of the method: as §1

EKVX = test system: EKVX
Summary of the method: as §1

NCI-H1437 = test system: NCI-H1437
Summary of the method: as §1

SW 1573 = test system: SW 1573
Summary of the method: as §1

LK-2 = test system: LK-2
Summary of the method: as §1

H3255 = test system: H3255
Summary of the method: as §1

HCC-15 = test system: HCC-15
Summary of the method: as §1

NCI-H2228 = test system: NCI-H2228
Summary of the method: as §1

**Q.** What does the source list for Oc1nc(-c2ccc(C(F)(F)F)cc2)nc2c1CSCC2 [XAV939] + N=C(N)NC(=N)NCCc1ccccc1 [Phenformin] (partner 250 µM)?
**A.** relative viability (PC-14; first compound 0.08 µM): 0.69; relative viability (PC-14; first compound 0.253 µM): 0.592; relative viability (PC-14; first compound 0.8 µM): 0.629; relative viability (PC-14; first compound 2.53 µM): 0.555; relative viability (NCI-H1734; first compound 0.08 µM): 0.44; relative viability (NCI-H1734; first compound 0.253 µM): 0.386; relative viability (NCI-H1734; first compound 0.8 µM): 0.337; relative viability (NCI-H1734; first compound 2.53 µM): 0.393; relative viability (COR-L23; first compound 0.08 µM): 0.438; relative viability (COR-L23; first compound 0.253 µM): 0.44; relative viability (COR-L23; first compound 0.8 µM): 0.466; relative viability (COR-L23; first compound 2.53 µM): 0.405; relative viability (NCI-H2405; first compound 0.08 µM): 0.373; relative viability (NCI-H2405; first compound 0.253 µM): 0.399; relative viability (NCI-H2405; first compound 0.8 µM): 0.363; relative viability (NCI-H2405; first compound 2.53 µM): 0.413; relative viability (NCI-H1650; first compound 0.08 µM): 0.499; relative viability (NCI-H1650; first compound 0.253 µM): 0.456; relative viability (NCI-H1650; first compound 0.8 µM): 0.373; relative viability (NCI-H1650; first compound 2.53 µM): 0.348; relative viability (NCI-H1563; first compound 0.08 µM): 0.616; relative viability (NCI-H1563; first compound 0.253 µM): 0.681; relative viability (NCI-H1563; first compound 0.8 µM): 0.594; relative viability (NCI-H1563; first compound 2.53 µM): 0.636; relative viability (NCI-H520; first compound 0.08 µM): 0.58; relative viability (NCI-H520; first compound 0.253 µM): 0.51; relative viability (NCI-H520; first compound 0.8 µM): 0.526; relative viability (NCI-H520; first compound 2.53 µM): 0.401; relative viability (NCI-H661; first compound 0.08 µM): 0.277; relative viability (NCI-H661; first compound 0.253 µM): 0.272; relative viability (NCI-H661; first compound 0.8 µM): 0.281; relative viability (NCI-H661; first compound 2.53 µM): 0.267; relative viability (RERF-LC-KJ; first compound 0.08 µM): 0.485; relative viability (RERF-LC-KJ; first compound 0.253 µM): 0.425; relative viability (RERF-LC-KJ; first compound 0.8 µM): 0.442; relative viability (RERF-LC-KJ; first compound 2.53 µM): 0.364; relative viability (NCI-H2342; first compound 0.08 µM): 0.555; relative viability (NCI-H2342; first compound 0.253 µM): 0.518; relative viability (NCI-H2342; first compound 0.8 µM): 0.552; relative viability (NCI-H2342; first compound 2.53 µM): 0.451; relative viability (NCI-H1355; first compound 0.08 µM): 0.455; relative viability (NCI-H1355; first compound 0.253 µM): 0.428; relative viability (NCI-H1355; first compound 0.8 µM): 0.43; relative viability (NCI-H1355; first compound 2.53 µM): 0.435; relative viability (NCI-H322M; first compound 0.08 µM): 0.88; relative viability (NCI-H322M; first compound 0.253 µM): 0.716; relative viability (NCI-H322M; first compound 0.8 µM): 0.625; relative viability (NCI-H322M; first compound 2.53 µM): 0.578; relative viability (PC-3 [JPC-3]; first compound 0.08 µM): 0.441; relative viability (PC-3 [JPC-3]; first compound 0.253 µM): 0.466; relative viability (PC-3 [JPC-3]; first compound 0.8 µM): 0.474; relative viability (PC-3 [JPC-3]; first compound 2.53 µM): 0.441; relative viability (CAL-12T; first compound 0.08 µM): 0.592; relative viability (CAL-12T; first compound 0.253 µM): 0.507; relative viability (CAL-12T; first compound 0.8 µM): 0.46; relative viability (CAL-12T; first compound 2.53 µM): 0.417; relative viability (ABC-1; first compound 0.08 µM): 0.212; relative viability (ABC-1; first compound 0.253 µM): 0.272; relative viability (ABC-1; first compound 0.8 µM): 0.256; relative viability (ABC-1; first compound 2.53 µM): 0.233; relative viability (HCC-827; first compound 0.08 µM): 0.364; relative viability (HCC-827; first compound 0.253 µM): 0.421; relative viability (HCC-827; first compound 0.8 µM): 0.452; relative viability (HCC-827; first compound 2.53 µM): 0.394; relative viability (EKVX; first compound 0.08 µM): 0.219; relative viability (EKVX; first compound 0.253 µM): 0.225; relative viability (EKVX; first compound 0.8 µM): 0.213; relative viability (EKVX; first compound 2.53 µM): 0.221; relative viability (NCI-H1437; first compound 0.08 µM): 0.343; relative viability (NCI-H1437; first compound 0.253 µM): 0.243; relative viability (NCI-H1437; first compound 0.8 µM): 0.287; relative viability (NCI-H1437; first compound 2.53 µM): 0.252; relative viability (SW 1573; first compound 0.08 µM): 0.483; relative viability (SW 1573; first compound 0.253 µM): 0.398; relative viability (SW 1573; first compound 0.8 µM): 0.369; relative viability (SW 1573; first compound 2.53 µM): 0.37; relative viability (LK-2; first compound 0.08 µM): 0.458; relative viability (LK-2; first compound 0.253 µM): 0.527; relative viability (LK-2; first compound 0.8 µM): 0.484; relative viability (LK-2; first compound 2.53 µM): 0.369; relative viability (H3255; first compound 0.08 µM): 0.415; relative viability (H3255; first compound 0.253 µM): 0.397; relative viability (H3255; first compound 0.8 µM): 0.381; relative viability (H3255; first compound 2.53 µM): 0.375; relative viability (HCC-15; first compound 0.08 µM): 0.634; relative viability (HCC-15; first compound 0.253 µM): 0.457; relative viability (HCC-15; first compound 0.8 µM): 0.481; relative viability (HCC-15; first compound 2.53 µM): 0.481; relative viability (NCI-H2228; first compound 0.08 µM): 0.3; relative viability (NCI-H2228; first compound 0.253 µM): 0.328; relative viability (NCI-H2228; first compound 0.8 µM): 0.296; relative viability (NCI-H2228; first compound 2.53 µM): 0.252
